The values that follow come from patent US12195457B2, “Aromatic ring derivative as immunoregulation and preparation method and application of aromatic ring derivative” (SHANGHAI JEMINCARE PHARMACEUTICALS CO., LTD, priority 2018, dated 2025).

SMILES strings stand for the structures.

Data set [1] deals with experimental autoimmune encephalomyelitis (EAE). As to the kind of experiment: Experimental autoimmune encephalomyelitis (EAE) in mice. Format: in vivo, C57BL/6J mice. As to conditions: days 5-37. How it is done: Female C57BL/6J mice were immunized with MOG35-55 antigen emulsion. 2 hours after immunization, each animal was injected with 200 ng/100 μL PTX solution intraperitoneally. After 24 hours (the second day), the same dose of PTX solution was injected once again. On the fifth day, the animals in each group began to administer the drug, and each group was given the drug by gavage, with a dosage of 10 mL/kg, once a day for 33 consecutive days (days 5-37). During the experiment, general clinical observation was carried out twice a day, and the weight and EAE clinical scores were measured once a day after administration. The score was divided into five grades: (0. normal mice, no obvious disease; 1. tail weakness or hind limb weakness; 2. tail weakness and hind limb weakness; 3. hemiplegia of hind limbs; 4. complete paralysis of hind limbs; 5, died of EAE or euthanasia in near-death state).

Data set [2] in a line: In vivo pharmacokinetics in rats, intravenous injection and oral administration. The note with it: rat; for AUC(0-inf) / clearance / half-life / Cmax: male, Sprague-Dawley, plasma. The arrangement: species or system Sprague Dawley rats. As for the experimental part: In this experimental embodiment, in vivo pharmacokinetic evaluation was performed in rats by intravenous injection and oral administration.
Experimental methods and conditions: male Sprague Dawley rats were given the test compounds 1 mg/kg (solvent 5% DMSO/15% Solutol/80% Saline) by intravenous injection and 1 mg/kg (solvent 0.5% MC) by oral gavage respectively. 5 min, 15 min, 30 min, 1 hr, 2 hr, 4 hr, 6 hr, 8 hr, 24 hr after administration, blood was collected from submandibular vein, each sample was collected about 0.20 mL, and heparin sodium was used for anti coagulation. After collection, the sample was placed on ice, and the blood was centrifuged to be measured within one hour. Blood drug concentration in plasma was detected by liquid chromatography tandem mass spectrometry (LC/MS/MS), and the pharmacokinetic parameters were calculated by Phoenix WinNonlin software.

In data set [3] the test system is peripheral blood lymphocyte (PBL) count. As to the kind of experiment: Peripheral lymphocyte lowering (PLL) in rats. Format: in vivo, Sprague-Dawley rats. The note with it: Rattus norvegicus, oral, 5 hours after administration, read-out: IC50 of peripheral blood lymphocyte (PBL) count decrease. How it is done: (§1) Mice: SPF female C57BL/6j mice, weighing 19-22 g. Rats: Male Sprague-Dawley rats, weighing 200-220 g. Feeding environment: the temperature was 23±2° C., the relative humidity was 40-70%, and the lighting time was at 7:00 in the morning to 7:00 in the evening; animals were freely fed with common feed and sterilized drinking water. All animal experiments were approved by the animal ethics committee; all animal experiments were carried out in accordance with the relevant SOP requirements of animal room. Animals were reared adaptively for one week before the experiment.
(§2) Animals were administered orally with a volume of 10 mL/kg. The vehicle for administration was 0.5% DMSO+0.5% MC. Animals were anesthetized with isoflurane 5 hours after administration, and 100-150 μL of peripheral blood was collected through the eye socket in EP tubes, placed on ice. The lymphocyte count of blood analysis was detected by XT-2000i automated hematology analyzer within 30 minutes. Another 20 μL of whole blood was diluted with 40 μL of DDW, and snap frozen in liquid nitrogen, the concentration of the compounds in blood was detected.

The test system is the same in data set [4]. As to the kind of experiment: Peripheral lymphocyte lowering (PLL) in mice. The data set is classed as in vivo, C57BL/6j mice. The note with it: Mus musculus, oral, 5 hours after administration, read-out: IC50 of peripheral blood lymphocyte (PBL) count decrease. How it is done: as §1, §2
For data set [5] the following is noted: cited from earlier work.
The test system of the next data set is DNBS-induced colitis. The data set is described as follows: Rat colitis model induced by DNBS. The note with it: DNBS rats. The data set is classed as in vivo, Wistar rats. The source says: The Wistar rat ulcerative enteritis model induced by DNBS (2, 4-dinitrobenzenesulfonic acid) is also one of the commonly used models for development of enteritis drugs. DNBS combines with intestinal tissue protein to form complete antigen, which increases vascular permeability, activates inflammatory transmitters, increases fibrinolytic activity, and makes the body produce immune response against intestinal mucosa, resulting in persistent ulcer and inflammation of intestinal mucosa in rats.
The experimental animals were Wistar rats, male, 5-6 weeks old, 140-160 g. The animals were kept in SPF room with a room temperature of 20-26° C., a humidity of 40-70%, fluorescent lamp lighting, 12 hours of lighting (08:00-20:00) and 12 hours of no lighting, with 2-5 animals in each cage (same administration group). […]
Drug treatment: 4 hours after modeling, animals were given with different concentrations of drugs or 0.5% methylcellulose by gavage, 10 mL/kg, once a day for 7 consecutive days. […] After administration, the animals were euthanized, colon tissues were collected, colon length, colon weight and ulcer area were measured, and colon injury in rats was evaluated macroscopically, so as to evaluate the therapeutic effect of the tested drugs on DNBS-induced inflammatory colitis model in rats.

Where [6] appears, read: intravenous administration 1 mg/kg.

Turning to `O=C(O)CCc1[nH]c2ccc(OCc3ccc(C4CCCC4)c(C(F)(F)F)c3)cc2c1Cl` [Compound 13], in data set [1] (1 mg/kg by gavage once a day), the “disease symptoms (EAE clinical score)” value is reported as “significantly reduce”. In data set [2] (setting [6]), the total exposure AUC(0-inf) (usually total exposure, with the tail of the curve extrapolated) amounted to 4750 ng·h/mL; the clearance was 3.5 mL/min/kg; the half-life (commonly how long it takes for the measured level to halve) is 2.8 h. For the same compound, in data set [2] (oral administration 1 mg/kg), the AUC(0-inf) was 1190 ng·h/mL; the Cmax – broadly, the highest concentration seen after dosing – is 184 ng/mL; the half-life is 3.9 h; the F is listed as 17.4%. In addition, in data set [3], the 50% inhibitory concentration (IC50) (as a rule, the point on the concentration scale where inhibition reaches its midpoint) amounted to 4.1 nM. Besides, in data set [4], the IC50 was determined as 18.5 nM.

Turning to `CCCCCCCCc1ccc(CCC(N)(CO)CO)cc1` [FTY720, Fingolimod], the “half-life in human body” value in data set [5] is 140 to 220 h.

As to `Cc1c(CCC(=O)O)[nH]c2ccc(OCc3ccc(C4CCCC4)c(C(F)(F)F)c3)cc12` [Compound 16], in the data set on DNBS-induced colitis (0.2 mg/kg by gavage once a day for 7 days), the “area of colonic ulcer” value is on record as “significantly reduce”. Besides, the “area of colonic ulcer” value with DNBS-induced colitis (1 mg/kg by gavage once a day for 7 days) is listed as “significantly reduce”. In data set [1] (1 mg/kg by gavage once a day), the “disease symptoms (EAE clinical score)” value is “significantly reduce”. Moreover, in data set [1] (5 mg/kg by gavage once a day), the “disease symptoms (EAE clinical score)” value is “significantly reduce”. In data set [2] (setting [6]), this compound showed an AUC(0-inf) of 4140 ng·h/mL, a clearance of 4.17 mL/min/kg and a half-life of 1.4 h. In data set [2] (oral administration 1 mg/kg), this compound gave a total exposure AUC(0-inf) of 649 ng·h/mL, a Cmax of 162 ng/mL, a half-life of 2.9 h and an F of 13.3%. The IC50 in data set [3] is 5.3 nM. Further, in data set [4], the IC50 amounted to 24.7 nM.
